{
  "source": "the supplement of paper PMC11061612",
  "key": {"[1]": {"tested_on": "KARPAS-231 (B-Cell Non-Hodgkin's Lymphoma)", "experiment": "Bliss excess, mean over the matrix (fraction); higher = more synergy", "in_short": "(§1)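 Cell lines in DMEM/F12 or RPMI with 10% FBS were plated in 1536-well plates, held 24 hours at 37°C, 5% CO2, then given two-drug dose matrices for 72 hours (DMSO typically 0.2%). Viability was read by CellTiter-Glo 2.0 luminescence and scaled as inhibition from 0 (vehicle wells) to 1 (blank wells). Combination Emax is the second-highest inhibition in the matrix; Bliss excess is observed combination effect minus expected EA + EB − EA·EB, EA and EB being single-agent effects.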"}, "[2]": {"tested_on": "NCI-H747 (Colorectal Carcinoma)", "experiment": "Bliss excess, mean over the matrix (fraction); higher = more synergy", "in_short": "as §1"}, "[3]": {"tested_on": "HCC-15 (Squamous Cell Lung Carcinoma)", "experiment": "Bliss excess, mean over the matrix (fraction); higher = more synergy", "in_short": "as §1"}, "[4]": {"tested_on": "UMC-11 (Other Solid Carcinomas)", "experiment": "Bliss excess, mean over the matrix (fraction); higher = more synergy", "in_short": "as §1"}, "[5]": {"tested_on": "COLO-829 (Melanoma)", "experiment": "Bliss excess, mean over the matrix (fraction); higher = more synergy", "in_short": "as §1"}, "[6]": {"tested_on": "SW626 (Colorectal Carcinoma)", "experiment": "Bliss excess, mean over the matrix (fraction); higher = more synergy", "in_short": "as §1"}, "[7]": {"tested_on": "KYSE-410 (Esophageal Squamous Cell Carcinoma)", "experiment": "Bliss excess, mean over the matrix (fraction); higher = more synergy", "in_short": "as §1"}, "[8]": {"tested_on": "CAL-51 (Breast Carcinoma)", "experiment": "Bliss excess, mean over the matrix (fraction); higher = more synergy", "in_short": "as §1"}, "[9]": {"tested_on": "CTB-1 (B-Cell Non-Hodgkin's Lymphoma)", "experiment": "Bliss excess, mean over the matrix (fraction); higher = more synergy", "in_short": "as §1"}, "[10]": {"tested_on": "TE-4 (Esophageal Squamous Cell Carcinoma)", "experiment": "Bliss excess, mean over the matrix (fraction); higher = more synergy", "in_short": "as §1"}, "[11]": {"tested_on": "MHH-PREB-1 (B-Cell Non-Hodgkin's Lymphoma)", "experiment": "Bliss excess, mean over the matrix (fraction); higher = more synergy", "in_short": "as §1"}, "[12]": {"tested_on": "OVCAR-8 (Ovarian Carcinoma)", "experiment": "Bliss excess, mean over the matrix (fraction); higher = more synergy", "in_short": "as §1"}, "[13]": {"tested_on": "LB771-HNC (Head and Neck Carcinoma)", "experiment": "Bliss excess, mean over the matrix (fraction); higher = more synergy", "in_short": "as §1"}, "[14]": {"tested_on": "KARPAS-231 (B-Cell Non-Hodgkin's Lymphoma)", "experiment": "combination Emax (second highest fraction inhibited in the dose matrix, 72 h); higher = more inhibition; extreme values may be limits of the assay", "in_short": "as §1"}, "[15]": {"tested_on": "NCI-H747 (Colorectal Carcinoma)", "experiment": "combination Emax (second highest fraction inhibited in the dose matrix, 72 h); higher = more inhibition; extreme values may be limits of the assay", "in_short": "as §1"}, "[16]": {"tested_on": "UMC-11 (Other Solid Carcinomas)", "experiment": "combination Emax (second highest fraction inhibited in the dose matrix, 72 h); higher = more inhibition; extreme values may be limits of the assay", "in_short": "as §1"}, "[17]": {"tested_on": "COLO-829 (Melanoma)", "experiment": "combination Emax (second highest fraction inhibited in the dose matrix, 72 h); higher = more inhibition; extreme values may be limits of the assay", "in_short": "as §1"}, "[18]": {"tested_on": "CAL-51 (Breast Carcinoma)", "experiment": "combination Emax (second highest fraction inhibited in the dose matrix, 72 h); higher = more inhibition; extreme values may be limits of the assay", "in_short": "as §1"}, "[19]": {"tested_on": "CTB-1 (B-Cell Non-Hodgkin's Lymphoma)", "experiment": "combination Emax (second highest fraction inhibited in the dose matrix, 72 h); higher = more inhibition; extreme values may be limits of the assay", "in_short": "as §1"}, "[20]": {"tested_on": "MHH-PREB-1 (B-Cell Non-Hodgkin's Lymphoma)", "experiment": "combination Emax (second highest fraction inhibited in the dose matrix, 72 h); higher = more inhibition; extreme values may be limits of the assay", "in_short": "as §1"}},
  "data": [
    {"smiles": "CN(CCO)CC[C@H](CSc1ccccc1)Nc1ccc(S(=O)(=O)NC(=O)c2ccc(N3CCC([C@@H](O)c4ccccc4-c4ccc(Cl)cc4)CC3)cc2)cc1S(=O)(=O)C(F)(F)F", "note": "[AZD4320] + C[C@@H](Nc1cc(F)cc(F)c1)c1cc(C(=O)N(C)C)cc2c(=O)cc(N3CCOCC3)oc12 [AZD8186] (first compound max 1 µM, 7x7, partner max 3 µM)", "values": [
      {"measurement": "Bliss excess", "setting": "[1]", "value": 0.0269},
      {"measurement": "Bliss excess", "setting": "[2]", "value": -0.0282},
      {"measurement": "Bliss excess", "setting": "[3]", "value": 0.0764},
      {"measurement": "Bliss excess", "setting": "[4]", "value": -0.0356},
      {"measurement": "Bliss excess", "setting": "[5]", "value": 0.0015},
      {"measurement": "Bliss excess", "setting": "[6]", "value": -0.0203},
      {"measurement": "Bliss excess", "setting": "[7]", "value": 0.0209},
      {"measurement": "Bliss excess", "setting": "[8]", "value": 0.0283},
      {"measurement": "Bliss excess", "setting": "[9]", "value": 0.0266},
      {"measurement": "Bliss excess", "setting": "[10]", "value": 0.0296},
      {"measurement": "Bliss excess", "setting": "[11]", "value": 0.0355},
      {"measurement": "Bliss excess", "setting": "[12]", "value": 0.0245},
      {"measurement": "Bliss excess", "setting": "[13]", "value": 0.0095},
      {"measurement": "combination Emax", "setting": "[14]", "value": 1},
      {"measurement": "combination Emax", "setting": "[15]", "value": 0.511},
      {"measurement": "combination Emax", "setting": "[16]", "value": 0.375},
      {"measurement": "combination Emax", "setting": "[17]", "value": 0.277},
      {"measurement": "combination Emax", "setting": "[18]", "value": 0.443},
      {"measurement": "combination Emax", "setting": "[19]", "value": 0.669},
      {"measurement": "combination Emax", "setting": "[20]", "value": 0.277}
    ]}
  ]
}
